{
  "source": "patent US20110028549A1",
  "about": "“USE OF A MONOTERPENE TO TREAT OR PREVENT STRESS” (AISA THERAPEUTICS, priority 2007, published 2011)",
  "key": {"[1]": {"conditions": "cancer patients, doses which may have clinical activity; cited from earlier work"}, "[2]": {"system": "female rats Wistar HsdBrlHan", "assay": "Functional Observation Battery (FOB) in rats after oral treatment", "assay_type": "in vivo, rat", "conditions": "for aggression (summary) / audible vocalization (summary) / body temperature (summary) / escapes after finger approach (summary) / interest for an object, curiosity (summary) / irritability (summary) / mictions (summary) / number of squares crossed (summary) / pain response (summary) / spontaneous activity (summary) / startle response (summary) / time before the rat falls (summary) / toe pinch reflex (summary) / wire manoeuvre (summary): FOB 1, 2 or 3 hours later, in comparison with the control; for capacity to tolerate stress: rats submitted to several stressful conditions, compared to vehicle-treated animals", "protocol": "1, 2 or 3 hours later, a Functional Observation Battery (FOB) was carried out.\nEighteen female rats Wistar HsdBrlHan EOPS (Ganat, France) with an average weight of 175-200 g are used. The 18 rats are weighed, marked and shared in 3 groups of 6 (n=6):\n“control” group=oral treatment with maize oil;\n“Perillic alcohol 10” group=oral treatment with perillic alcohol at 10 mg/kg;\nThe observations are carried out 60 minutes before treatment and 60, 120 and 180 minutes after the administration orally of the assayed products and comprise three observation phases:\na first direct observation phase during which the animal is not disturbed;\nan active observation phase during which the animal is manipulated;\na phase dedicated to the evaluation of the responses of the animals towards the reactivity assays.\nThe studied variables are the following:\nbehavioural effects: spontaneous locomotive activity, locomotive behaviour troubles, anxiety, touch response, irritability, aggression and freezing caused behaviours, somnolence, number of defecations, number of mictions, sensor-motor responses (toe pinch response and sound response);\nneurological effects: pupillary reflex, palpebral closure, pelvic elevation, tail position, limb and abdominal tones, reversal test, grip test, tremors and piloerection;\nphysiological effects: salivation, lacrimation, diarrhea, body temperature, respiratory rhythm.\nConsidering the Gaussian distribution or not of the data, parametric (P) or non-parametric (NP) tests are used: ANOVA (P) or Kruskal-Wallis test (NP) followed possibly by the Dunnett test (P) or the Mann-Whitney test (NP) to compare the treated groups with the control group. Statistics are carried out with the Statview 5 software (SAS, Institute Inc., USA)."}, "isoprenylation enzymes": {"system": "isoprenylation enzymes", "conditions": "cited from earlier work"}, "[3]": {"conditions": "100 mg/kg limonene ingested in a custard, 4 h after ingestion, GC/MS; cited from earlier work"}, "[4]": {"conditions": "10 mg/kg orally, T+60 min, Mann-Whitney test"}, "[5]": {"conditions": "10 mg/kg orally, T+120 min, Mann-Whitney test"}, "[6]": {"conditions": "10 mg/kg orally, T+180 min, Mann-Whitney test"}, "[7]": {"conditions": "10 mg/kg orally, T+120 min, Mann-Whitney test vs. Control, n = 6"}, "[8]": {"conditions": "10 mg/kg orally, T+180 min, Mann-Whitney test vs. Control, n = 6"}},
  "data": [
    {"compound": "C=C(C)[C@H]1CC=C(C)CC1", "note": "[Limonene, (4R)-1-methyl-4-isopropenylcyclohex-1-ene]", "values": [
      {"measurement": "tolerability", "setting": "[1]", "value": "well tolerated"},
      {"measurement": "duration of the effect", "setting": "[2]; 10 mg/kg orally", "value": "at least 3 hours"},
      {"measurement": "overall effect indicated by the FOB results", "setting": "[2]; 10 mg/kg orally", "value": "an appeasing, relaxing effect, an anti-pain effect and an effect on temper giving a cheerful character"},
      {"measurement": "time to response (onset)", "setting": "[2]; 10 mg/kg orally", "value": "less than one hour"},
      {"measurement": "aggression (summary)", "setting": "[2]; 10 mg/kg orally", "value": "no aggression"},
      {"measurement": "audible vocalization (summary)", "setting": "[2]; 10 mg/kg orally", "value": "very poor"},
      {"measurement": "body temperature (summary)", "setting": "[2]; 10 mg/kg orally", "value": "a decrease"},
      {"measurement": "escapes after finger approach (summary)", "setting": "[2]; 10 mg/kg orally", "value": "less quickly escapes"},
      {"measurement": "interest for an object, curiosity (summary)", "setting": "[2]; 10 mg/kg orally", "value": "an increase"},
      {"measurement": "irritability (summary)", "setting": "[2]; 10 mg/kg orally", "value": "no irritability"},
      {"measurement": "mictions (summary)", "setting": "[2]; 10 mg/kg orally", "value": "an increase"},
      {"measurement": "number of squares crossed (summary)", "setting": "[2]; 10 mg/kg orally", "value": "an increase"},
      {"measurement": "pain response (summary)", "setting": "[2]; 10 mg/kg orally", "value": "a high decrease"},
      {"measurement": "spontaneous activity (summary)", "setting": "[2]; 10 mg/kg orally", "value": "an increase"},
      {"measurement": "startle response (summary)", "setting": "[2]; 10 mg/kg orally", "value": "an important decrease"},
      {"measurement": "time before the rat falls (summary)", "setting": "[2]; 10 mg/kg orally", "value": "an increase"},
      {"measurement": "toe pinch reflex (summary)", "setting": "[2]; 10 mg/kg orally", "value": "a decrease"},
      {"measurement": "wire manoeuvre (summary)", "setting": "[2]; 10 mg/kg orally", "value": "an increase"},
      {"measurement": "Audible vocalization vs control group", "setting": "[2]; [4]", "value": "significantly less vocalization"},
      {"measurement": "Interest for an object vs control group", "setting": "[2]; [4]", "value": "significantly more important"},
      {"measurement": "Irritability vs control group", "setting": "[2]; [4]", "value": "significantly less irritable"},
      {"measurement": "Toe pinch reflex vs control group", "setting": "[2]; [4]", "value": "significantly less reactive"},
      {"measurement": "Audible vocalization vs control group", "setting": "[2]; [5]", "value": "significantly less vocalization"},
      {"measurement": "Finger approach, escapes vs control group", "setting": "[2]; [5]", "value": "significantly less escapes"},
      {"measurement": "Interest for an object vs control group", "setting": "[2]; [5]", "value": "significantly more important"},
      {"measurement": "Irritability vs control group", "setting": "[2]; [5]", "value": "significantly less irritable"},
      {"measurement": "Startles vs control group", "setting": "[2]; [5]", "value": "significantly less startles"},
      {"measurement": "Audible vocalization vs control group", "setting": "[2]; [6]", "value": "significantly less vocalization"},
      {"measurement": "Body temperature vs control group", "setting": "[2]; [6]", "value": "significantly lower"},
      {"measurement": "Interest for an object vs control group", "setting": "[2]; [6]", "value": "significantly higher"},
      {"measurement": "Number of squares crossed vs control group", "setting": "[2]; [6]", "value": "significantly more squares"},
      {"measurement": "Startles vs control group", "setting": "[2]; [6]", "value": "significantly less startles"},
      {"measurement": "Wire manoeuvre vs control group", "setting": "[2]; [6]", "value": "significantly more often"},
      {"measurement": "capacity to tolerate stress", "setting": "[2]", "value": "an important effect leading to the capacity to tolerate stress"},
      {"measurement": "inhibition of the isoprenylation enzymes", "setting": "isoprenylation enzymes", "value": "only weak inhibitors"},
      {"measurement": "compounds (plasma metabolites) present in blood", "setting": "[3]", "value": "at least five compounds"},
      {"measurement": "identity of the two major plasma metabolite peaks", "setting": "[3]", "value": "dihydroperillic acid and perillic acid"}
    ]},
    {"compound": "S-limonene", "values": [
      {"measurement": "inhibition of the isoprenylation enzymes", "setting": "isoprenylation enzymes", "value": "only weak inhibitors"}
    ]},
    {"compound": "C=C(C)[C@@H]1CC=C(C(=O)O)CC1", "note": "[perillic acid]", "values": [
      {"measurement": "IC50 on isoprenylation enzymes", "setting": "isoprenylation enzymes", "value": "low mM range"},
      {"measurement": "inhibition of the isoprenylation enzymes", "setting": "isoprenylation enzymes", "value": "more potent inhibitors"}
    ]},
    {"compound": "C=C(C)[C@@H]1CC=C(CO)CC1", "note": "[Perillic alcohol, (S)-4-Isopropenyl-1-cyclohexenylmethanol]", "values": [
      {"measurement": "duration of the effect", "setting": "[2]; 10 mg/kg orally", "value": "already decreased after 2 hours"},
      {"measurement": "overall effect indicated by the FOB results", "setting": "[2]; 10 mg/kg orally", "value": "an appeasing, relaxing effect, an anti-pain effect and an effect on temper giving a cheerful character"},
      {"measurement": "time to response (onset)", "setting": "[2]; 10 mg/kg orally", "value": "less than one hour"},
      {"measurement": "aggression (summary)", "setting": "[2]; 10 mg/kg orally", "value": "no aggression"},
      {"measurement": "audible vocalization (summary)", "setting": "[2]; 10 mg/kg orally", "value": "very poor"},
      {"measurement": "body temperature (summary)", "setting": "[2]; 10 mg/kg orally", "value": "a decrease"},
      {"measurement": "escapes after finger approach (summary)", "setting": "[2]; 10 mg/kg orally", "value": "less quickly escapes"},
      {"measurement": "interest for an object, curiosity (summary)", "setting": "[2]; 10 mg/kg orally", "value": "an increase"},
      {"measurement": "irritability (summary)", "setting": "[2]; 10 mg/kg orally", "value": "no irritability"},
      {"measurement": "mictions (summary)", "setting": "[2]; 10 mg/kg orally", "value": "an increase"},
      {"measurement": "number of squares crossed (summary)", "setting": "[2]; 10 mg/kg orally", "value": "an increase"},
      {"measurement": "pain response (summary)", "setting": "[2]; 10 mg/kg orally", "value": "a high decrease"},
      {"measurement": "spontaneous activity (summary)", "setting": "[2]; 10 mg/kg orally", "value": "an increase"},
      {"measurement": "startle response (summary)", "setting": "[2]; 10 mg/kg orally", "value": "an important decrease"},
      {"measurement": "time before the rat falls (summary)", "setting": "[2]; 10 mg/kg orally", "value": "an increase"},
      {"measurement": "toe pinch reflex (summary)", "setting": "[2]; 10 mg/kg orally", "value": "a decrease"},
      {"measurement": "wire manoeuvre (summary)", "setting": "[2]; 10 mg/kg orally", "value": "an increase"},
      {"measurement": "Audible vocalization vs control group", "setting": "[2]; [4]", "value": "tendancy to emit less vocalization"},
      {"measurement": "Interest for an object vs control group", "setting": "[2]; [4]", "value": "tendency to have a more important interest"},
      {"measurement": "Irritability vs control group", "setting": "[2]; [4]", "value": "significantly less irritable"},
      {"measurement": "Toe pinch reflex vs control group", "setting": "[2]; [4]", "value": "significantly less reactive"},
      {"measurement": "Finger approach, escapes vs control group", "setting": "[2]; [5]", "value": "significantly less escapes"},
      {"measurement": "Audible vocalization", "setting": "[2]; [7]", "value": "N.S."},
      {"measurement": "Interest for an object", "setting": "[2]; [7]", "value": "N.S."},
      {"measurement": "Irritability", "setting": "[2]; [7]", "value": "N.S."},
      {"measurement": "Startles", "setting": "[2]; [7]", "value": "N.S."},
      {"measurement": "Audible vocalization vs control group", "setting": "[2]; [6]", "value": "tendency to emit less vocalization"},
      {"measurement": "Body temperature", "setting": "[2]; [8]", "value": "N.S."},
      {"measurement": "Interest for an object", "setting": "[2]; [8]", "value": "N.S."},
      {"measurement": "Number of squares crossed", "setting": "[2]; [8]", "value": "N.S."},
      {"measurement": "Startles", "setting": "[2]; [8]", "value": "N.S."},
      {"measurement": "Wire manoeuver", "setting": "[2]; [8]", "value": "N.S."},
      {"measurement": "capacity to tolerate stress", "setting": "[2]", "value": "an important effect leading to the capacity to tolerate stress"},
      {"measurement": "IC50 on isoprenylation enzymes", "setting": "isoprenylation enzymes", "value": "low mM range"},
      {"measurement": "inhibition of the isoprenylation enzymes", "setting": "isoprenylation enzymes", "value": "more potent inhibitors"}
    ]}
  ]
}
